# Test results reported in US11992468B2, “Abuse-deterrent dosage forms containing esketamine” (Clexio Biosciences Ltd., priority 2019, dated 2024).
# Counter-ions that a name gives are not always drawn.
# Assay: Simulated in vitro nasal diffusion/release (vertical diffusion cell)
# Conditions: pH 6.4
smiles,measurement,value
"CN[C@]1(c2ccccc2Cl)CCCCC1=O [Esketamine HCl powder, esketamine hydrochloride]",recovery at 10 min,45.1%
same,recovery at 30 min,75.9%
same,recovery at 60 min,79.2%
